From PubChem BioAssay (NCI)
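Test compounds were applied to cells in 96-well plates for 48 hours at 5 doses. The concentration for full growth arrest is given as TGI.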

Key:
Test in all cases: NCI tumour cell line growth inhibition, 48 h
KM12 colon = system: KM12 colon
SF-295 CNS = system: SF-295 CNS
SF-268 CNS = system: SF-268 CNS
SW-620 colon = system: SW-620 colon
IGROV1 ovarian = system: IGROV1 ovarian
HOP-62 NSCLC = system: HOP-62 NSCLC
NCI/ADR-RES ovarian = system: NCI/ADR-RES ovarian
MCF7 breast = system: MCF7 breast
CCRF-CEM leukemia = system: CCRF-CEM leukemia
PC-3 prostate = system: PC-3 prostate
SF-539 CNS = system: SF-539 CNS
OVCAR-5 ovarian = system: OVCAR-5 ovarian
OVCAR-3 ovarian = system: OVCAR-3 ovarian
SNB-75 CNS = system: SNB-75 CNS
SK-MEL-28 melanoma = system: SK-MEL-28 melanoma
SK-MEL-5 melanoma = system: SK-MEL-5 melanoma
EKVX NSCLC = system: EKVX NSCLC
HOP-92 NSCLC = system: HOP-92 NSCLC
UACC-62 melanoma = system: UACC-62 melanoma
ACHN renal = system: ACHN renal
MDA-MB-231 breast = system: MDA-MB-231 breast
NCI-H460 lung = system: NCI-H460 lung
RPMI-8226 leukemia = system: RPMI-8226 leukemia
NCI-H226 lung = system: NCI-H226 lung
MALME-3M melanoma = system: MALME-3M melanoma
HS 578T breast = system: HS 578T breast
OVCAR-4 ovarian = system: OVCAR-4 ovarian
MDA-N = system: MDA-N
DU-145 prostate = system: DU-145 prostate
SR leukemia = system: SR leukemia
BT-549 breast = system: BT-549 breast
NCI-H522 lung = system: NCI-H522 lung
U251 CNS = system: U251 CNS
HT29 colon = system: HT29 colon
T-47D breast = system: T-47D breast
CAKI-1 renal = system: CAKI-1 renal
TK-10 renal = system: TK-10 renal
MDA-MB-435 = system: MDA-MB-435
A498 renal = system: A498 renal
SN12C renal = system: SN12C renal
A549 NSCLC = system: A549 NSCLC
RXF 393 renal = system: RXF 393 renal
SK-MEL-2 melanoma = system: SK-MEL-2 melanoma
NCI-H23 lung = system: NCI-H23 lung
SNB-19 CNS = system: SNB-19 CNS
HCC-2998 colon = system: HCC-2998 colon
786-0 renal = system: 786-0 renal
K-562 leukemia = system: K-562 leukemia
UO-31 renal = system: UO-31 renal
HCT-116 colon = system: HCT-116 colon
OVCAR-8 ovarian = system: OVCAR-8 ovarian
MOLT-4 leukemia = system: MOLT-4 leukemia
M14 melanoma = system: M14 melanoma
UACC-257 melanoma = system: UACC-257 melanoma
LOX IMVI melanoma = system: LOX IMVI melanoma
HCT-15 colon = system: HCT-15 colon
COLO 205 colon = system: COLO 205 colon
HL-60(TB) leukemia = system: HL-60(TB) leukemia
SK-OV-3 ovarian = system: SK-OV-3 ovarian

## CCN1/C(=C/c2ccc3ccccc3[n+]2CC)C=Cc2ccccc21
KM12 colon
  TGI: 1.4 µM
SF-295 CNS
  TGI: 10.5 µM
SF-268 CNS
  TGI: 16.5 µM
SW-620 colon
  TGI: 14.5 µM
IGROV1 ovarian
  TGI: 16.4 µM
HOP-62 NSCLC
  TGI: 13.9 µM
NCI/ADR-RES ovarian
  TGI: 88.9 µM
MCF7 breast
  TGI: 13.1 µM
CCRF-CEM leukemia
  TGI: 6.81 µM
PC-3 prostate
  TGI: 4.58 µM
SF-539 CNS
  TGI: 13.7 µM
OVCAR-5 ovarian
  TGI: 24.4 µM
OVCAR-3 ovarian
  TGI: 13.1 µM
SNB-75 CNS
  TGI: 2.27 µM
SK-MEL-28 melanoma
  TGI: 15.9 µM
SK-MEL-5 melanoma
  TGI: 3.77 µM
EKVX NSCLC
  TGI: 16.7 µM
HOP-92 NSCLC
  TGI: 6.93 µM
UACC-62 melanoma
  TGI: 9.22 µM
ACHN renal
  TGI: 31.5 µM
MDA-MB-231 breast
  TGI: 8.12 µM
NCI-H460 lung
  TGI: 4.95 µM
RPMI-8226 leukemia
  TGI: > 23.4 µM
NCI-H226 lung
  TGI: 9.71 µM
MALME-3M melanoma
  TGI: 6.89 µM
HS 578T breast
  TGI: 12.5 µM
OVCAR-4 ovarian
  TGI: 19.8 µM
MDA-N
  TGI: 2.04 µM
DU-145 prostate
  TGI: 15.7 µM
SR leukemia
  TGI: > 100 µM
BT-549 breast
  TGI: 24 µM
NCI-H522 lung
  TGI: 4.64 µM
U251 CNS
  TGI: 11.1 µM
HT29 colon
  TGI: 11 µM
T-47D breast
  TGI: 6.31 µM
CAKI-1 renal
  TGI: 56.8 µM
TK-10 renal
  TGI: 26.4 µM
MDA-MB-435
  TGI: 1.67 µM
A498 renal
  TGI: 15 µM
SN12C renal
  TGI: 12.8 µM
A549 NSCLC
  TGI: 17.1 µM
RXF 393 renal
  TGI: 12.8 µM
SK-MEL-2 melanoma
  TGI: 3.9 µM
NCI-H23 lung
  TGI: 17.1 µM
SNB-19 CNS
  TGI: 27.8 µM
HCC-2998 colon
  TGI: 13.4 µM
786-0 renal
  TGI: 13.9 µM
K-562 leukemia
  TGI: > 100 µM
UO-31 renal
  TGI: 8.45 µM
HCT-116 colon
  TGI: 11.7 µM
OVCAR-8 ovarian
  TGI: 12.4 µM
MOLT-4 leukemia
  TGI: > 33.9 µM
M14 melanoma
  TGI: 12.8 µM
UACC-257 melanoma
  TGI: 7.22 µM
LOX IMVI melanoma
  TGI: 4.86 µM
HCT-15 colon
  TGI: 34.1 µM

## COc1ccc(/C=C2\CN(C)CC3=C2OC(N)=C(C#N)C3c2ccc(OC)cc2)cc1 (centres undefined)
KM12 colon
  TGI: > 100 µM
SF-295 CNS
  TGI: > 100 µM
SF-268 CNS
  TGI: > 100 µM
SW-620 colon
  TGI: > 100 µM
IGROV1 ovarian
  TGI: > 95.5 µM
HOP-62 NSCLC
  TGI: > 100 µM
NCI/ADR-RES ovarian
  TGI: > 100 µM
MCF7 breast
  TGI: > 100 µM
CCRF-CEM leukemia
  TGI: 30.2 µM
PC-3 prostate
  TGI: > 53.1 µM
SF-539 CNS
  TGI: > 100 µM
OVCAR-5 ovarian
  TGI: > 100 µM
COLO 205 colon
  TGI: > 100 µM
OVCAR-3 ovarian
  TGI: > 93.1 µM
SK-MEL-28 melanoma
  TGI: > 100 µM
SK-MEL-5 melanoma
  TGI: > 100 µM
EKVX NSCLC
  TGI: > 100 µM
HOP-92 NSCLC
  TGI: 59.3 µM
UACC-62 melanoma
  TGI: > 100 µM
ACHN renal
  TGI: > 100 µM
MDA-MB-231 breast
  TGI: > 100 µM
NCI-H460 lung
  TGI: > 100 µM
RPMI-8226 leukemia
  TGI: > 43.9 µM
NCI-H226 lung
  TGI: > 100 µM
MALME-3M melanoma
  TGI: 58.1 µM
HS 578T breast
  TGI: > 100 µM
OVCAR-4 ovarian
  TGI: > 100 µM
MDA-N
  TGI: > 100 µM
DU-145 prostate
  TGI: > 100 µM
SR leukemia
  TGI: > 100 µM
BT-549 breast
  TGI: > 100 µM
NCI-H522 lung
  TGI: > 83.1 µM
U251 CNS
  TGI: > 100 µM
HT29 colon
  TGI: > 100 µM
T-47D breast
  TGI: > 100 µM
CAKI-1 renal
  TGI: > 100 µM
TK-10 renal
  TGI: > 100 µM
MDA-MB-435
  TGI: > 71.2 µM
A498 renal
  TGI: > 100 µM
SN12C renal
  TGI: > 100 µM
A549 NSCLC
  TGI: > 100 µM
HL-60(TB) leukemia
  TGI: > 27.6 µM
RXF 393 renal
  TGI: > 86.9 µM
SK-MEL-2 melanoma
  TGI: > 65.5 µM
NCI-H23 lung
  TGI: > 100 µM
SNB-19 CNS
  TGI: > 100 µM
HCC-2998 colon
  TGI: > 90.5 µM
786-0 renal
  TGI: > 100 µM
SK-OV-3 ovarian
  TGI: > 100 µM
K-562 leukemia
  TGI: > 100 µM
UO-31 renal
  TGI: > 100 µM
HCT-116 colon
  TGI: > 100 µM
OVCAR-8 ovarian
  TGI: > 100 µM
MOLT-4 leukemia
  TGI: > 49 µM
M14 melanoma
  TGI: > 100 µM
UACC-257 melanoma
  TGI: > 100 µM
LOX IMVI melanoma
  TGI: > 100 µM
HCT-15 colon
  TGI: > 100 µM
